Assay results: ChEMBL document CHEMBL1122606, “cis-4-[[[(2-Chloroethyl)nitrosoamino]carbonyl]methylamino] cyclohexanecarboxylic acid, a nitrosourea with latent activity against an experimental solid tumor” (J Med Chem, 1984)

Columns and labels:
[1] = Half life period in phosphate buffer (pH 7.4); format: ADME
Mus musculus = species: Mus musculus; test: Dose showing lethal effects on 10% of the mice bearing lewis lung tumors.; format: functional

Structure (SMILES)	half-life [1]	LD10 (Mus musculus)
CN(C(=O)N(CCCl)N=O)C1CCC(C(=O)O)CC1 (centres undefined)	4.5 h	>400 mg/kg
O=NN(CCCl)C(=O)NC1CCC(C(=O)O)CC1 (centres undefined)	46 h	26 mg/kg
